Experimental data: the Deep4Chem optical property database
Values belong to the compound of their own block, whether it stands above or below them.

Test: solvent given as SMILES

fluorescence lifetime (in C1CCOC1): 4.22 ns
Structure (SMILES): CCn1c2ccccc2c2cc(C#Cc3cc(C#Cc4ccc5c(c4)c4ccccc4n5CC)nc(S(C)(=O)=O)n3)ccc21

fluorescence lifetime (in CO): 0.43 ns | fluorescence lifetime (in ClC(Cl)Cl): 2.14 ns
Structure (SMILES): CC[n+]1c(C=C2C(=O)C(C=C3N(C)c4ccc(Cl)cc4C3(C)C)=C2[O-])[se]c2ccccc21

Structure (SMILES): COc1ccc(C2=CC(c3ccc(OC)cc3)=[O+][B-](C(C)=O)(C(C)=O)O2)cc1
fluorescence lifetime (in CC#N): 2.1 ns | fluorescence lifetime (in ClC(Cl)(Cl)Cl): 2.1 ns

fluorescence lifetime (in ClC(Cl)Cl): 4.1 ns
Structure (SMILES): CCCCCCCCN1C(=O)c2ccc3c4c(-c5ccc6c(c5)c5ccccc5n6-c5ccccc5)cc5c6c(cc(-c7ccc8c(c7)c7ccccc7n8-c7ccccc7)c(c7ccc(c2c37)C1=O)c64)C(=O)N(CCCCCCCC)C5=O

fluorescence lifetime (in ClC(Cl)Cl): 13.2 ns
Structure (SMILES): CCCCCCCCN1C(=O)c2ccc3c4c(-c5ccc6c7ccccc7n(-c7ccccc7)c6c5)cc5c6c(cc(-c7ccc8c9ccccc9n(-c9ccccc9)c8c7)c(c7ccc(c2c37)C1=O)c64)C(=O)N(CCCCCCCC)C5=O

Structure (SMILES): O=P1(c2ccccc2)c2cc(N3c4ccccc4Oc4ccccc43)ccc2-c2ccc(N3c4ccccc4Oc4ccccc43)cc21
fluorescence lifetime (in c1ccc2c(c1)c1ccccc1n2-c1ccc(-c2ccc(-n3c4ccccc4c4ccccc43)cc2)cc1): 23.7 ns

fluorescence lifetime (in C1CCOC1): 6.7 ns
Structure (SMILES): COc1ccc(C(=Cc2ccc(C=O)cc2)c2ccc(OC)cc2)cc1

fluorescence lifetime (in C1CCOC1): 4.2 ns
Structure (SMILES): CCCCn1c2ccc(-c3cccs3)cc2c2c1c1c3ccc(-c4cccs4)cc3n(CCCC)c1c1c3ccc(-c4cccs4)cc3n(CCCC)c21

Structure (SMILES): CC1=C(c2ccccc2)C(C)=[N+]2C1=C(c1ccccc1)c1c(C)c(-c3ccccc3)c(C)n1[B-]2(F)F
fluorescence lifetime (in Cc1ccccc1): 4.1 ns

fluorescence lifetime (in ClC(Cl)Cl): 3.89 ns
Structure (SMILES): C(#Cc1ccccc1)c1ccccc1

Structure (SMILES): Cn1nc(-c2ccccc2)c2n[nH]nc2c1=O
fluorescence lifetime (in CC#N): 2 ns | fluorescence lifetime (in CCO): 1.9 ns | fluorescence lifetime (in Cc1ccccc1): 1.2 ns

fluorescence lifetime (in CN(C)C=O): 1.92 ns | fluorescence lifetime (in CS(C)=O): 1.82 ns
Structure (SMILES): CCCCCCCCC1(CCCCCCCC)c2cc(-c3ccc([N+](=O)[O-])cc3)ccc2-c2ccc(-c3ccc([N+](=O)[O-])cc3)cc21

Structure (SMILES): COc1nc(Cl)nc(Nc2ccc3c4c(cccc24)C(=O)c2ccccc2-3)n1
fluorescence lifetime (in CC#N): 8.4 ns | fluorescence lifetime (in CC(C)=O): 7.7 ns | fluorescence lifetime (in CC(C)O): 8 ns | fluorescence lifetime (in CCCCOCCCC): 0.9 ns | fluorescence lifetime (in CCOC(C)=O): 3.9 ns | fluorescence lifetime (in CCOCC): 1.6 ns | fluorescence lifetime (in CO): 7.7 ns | fluorescence lifetime (in Cc1ccccc1): 2.8 ns | fluorescence lifetime (in Clc1ccccc1): 5.4 ns | fluorescence lifetime (in N#Cc1ccccc1): 7.8 ns | fluorescence lifetime (in O=C1CCCCC1): 6.3 ns

fluorescence lifetime (in c1ccccc1): 1.5 ns
Structure (SMILES): Cc1nc2c(ccc3ccccc32)oc1=O

fluorescence lifetime (in ClC(Cl)Cl): 0.5 ns
Structure (SMILES): O=Cc1ccc(C#CC(C#Cc2ccc(C=O)s2)=Cc2ccc(C=C(C#Cc3ccc(C=O)s3)C#Cc3ccc(C=O)s3)s2)s1

fluorescence lifetime (in CCO): 6.4 ns | fluorescence lifetime (in ClC(Cl)Cl): 4.8 ns
Structure (SMILES): COc1ccc2c(-c3nc(-c4ccccc4)no3)cc(=O)oc2c1

Structure (SMILES): Cc1ccc(C2=C3C=CC(/C=C/c4ccccc4)=[N+]3[B-](F)(F)n3c(Cl)ccc32)cc1
fluorescence lifetime (in C1CCCCC1): 3.64 ns | fluorescence lifetime (in C1CCOC1): 3.45 ns | fluorescence lifetime (in C1COCCO1): 3.68 ns | fluorescence lifetime (in CCOC(C)=O): 3.43 ns | fluorescence lifetime (in CO): 3.16 ns | fluorescence lifetime (in Cc1ccccc1): 3.68 ns | fluorescence lifetime (in ClC(Cl)Cl): 3.98 ns

fluorescence lifetime (in C1CCOC1): 1 ns
Structure (SMILES): O=C1c2cc(-c3ccccc3)ccc2-c2ccc(-c3ccccc3)cc21

fluorescence lifetime (in ClCCl): 2.5 ns
Structure (SMILES): N#Cc1ccc(C2=Cc3cc4ccccc4cc3P2(=O)c2ccccc2)cc1 (centres undefined)

fluorescence lifetime (in ClCCl): 3 ns
Structure (SMILES): [BH3-][P+]1(c2ccccc2)c2ccccc2-c2sc3ccccc3c21 (centres undefined)

fluorescence lifetime (in ClCCl): 9.47 ns
Structure (SMILES): O=c1oc2ccccc2cc1-c1ccc(-c2ccc(-c3cc4ccccc4oc3=O)cc2)cc1

Structure (SMILES): Cc1cc(C)c(B(c2ccccc2N2c3ccccc3Oc3ccccc32)c2c(C)cc(C)cc2C)c(C)c1
fluorescence lifetime (in Cc1ccccc1): 62 ns

Structure (SMILES): NCCc1c[nH]c2ccc(O)cc12
fluorescence lifetime (in CC#N): 4.1 ns | fluorescence lifetime (in CC(C)O): 4.28 ns | fluorescence lifetime (in CO): 4.04 ns | fluorescence lifetime (in O): 3.94 ns

Structure (SMILES): Cn1cccc1-c1cc(C#N)ccc1C#N
fluorescence lifetime (in C1CCOC1): 13.1 ns | fluorescence lifetime (in CC#N): 2.8 ns | fluorescence lifetime (in CCCCCC): 7.5 ns | fluorescence lifetime (in CCCCOCCCC): 11.4 ns | fluorescence lifetime (in CCOCC): 12.6 ns

fluorescence lifetime (in C1CCCCC1): 24.1 ns | fluorescence lifetime (in CC#N): 31 ns | fluorescence lifetime (in CO): 30.7 ns | fluorescence lifetime (in ClCCl): 27.1 ns
Structure (SMILES): COc1ccc2c(c1)c1c(OC)c3ccccc3c(OC)c1n2C

Structure (SMILES): O=C1c2ccccc2C(=O)C1C1C(=O)c2c3ccccc3cc3cc4ccccc4c1c23 (centres undefined)
fluorescence lifetime (in C1CCOC1): 13.5 ns | fluorescence lifetime (in CC#N): 8.4 ns | fluorescence lifetime (in CCCCCC): 12.9 ns | fluorescence lifetime (in Cc1ccccc1): 14.1 ns | fluorescence lifetime (in ClCCl): 11 ns

fluorescence lifetime (in C1CCCCC1): 0.49 ns
Structure (SMILES): COC(=O)c1noc(-c2ccccc2)c1Br

Structure (SMILES): COc1ccc(-c2c3ccc([nH]3)c3nc(c(-c4ccc([N+](=O)[O-])cc4)c4ccc([nH]4)c4ccc([nH]4)c(-c4ccc(OC)cc4)c4ccc2o4)C=C3)cc1
fluorescence lifetime (in C1CCOC1): 0.66 ns | fluorescence lifetime (in Cc1ccccc1): 4.33 ns | fluorescence lifetime (in c1ccccc1): 4.2 ns

Structure (SMILES): CCCCCCCCCCn1nnc(-c2ccc(C#Cc3ccc(C#Cc4ccc(-c5nnn(CCCCCCCCCC)n5)cc4)c4nc5c6ccccc6c6ccccc6c5nc34)cc2)n1
fluorescence lifetime (in C1CCOC1): 3.66 ns | fluorescence lifetime (in Cc1ccccc1): 2.52 ns | fluorescence lifetime (in ClCCl): 4.8 ns
